Data as given in patent US20260191825A1, “CONTRACEPTIVE COMPOUNDS AND DOSING FOR THE SAME” (YourChoice Therapeutics, Inc., priority 2024, published 2026).
“Also recorded” adds a separate entry of the source.

Assays:
male Cynomolgus macaques = experiment: NHP repeat dose non-GLP efficacy study (sperm counts, MABEL); format: in vivo, cynomolgus macaque
Protocol: Animals and husbandry. Six (6) sexually mature, non-naïve male Cynomolgus macaques (8-15 years, 6-15 kg) were used. The animals were individually housed in a humidity- and temperature-controlled facility under a 12 h light/12 h dark diurnal cycle with two daily meals and water ad libitum. The animals were provided with cage toys and daily fresh fruits for environmental enrichment. The animals were acclimated for 2 weeks and observed twice daily to assess overall health and behavior. The animal use protocol was approved by WuXi App Tec's IACUC per the Association for Assessment and Accreditation of Laboratory Animal Care (AAALAC) guideline. The conduct of the study followed the Guidance for the Care and Use of Laboratory Animals (NRC 2011, 8th Edition), with a USDA Category C for the pain and distress level. The humane endpoints included: significant body weight drop of 20% within 7 days, severe adverse effort associated with the administration of the test article, pain and distress caused by any of the in-life procedures, and injury sustained during any time of the experiment that could impact the well-being of the animal (all determined by attending veterinarian). All animals were non-naïve and only animals that had normal hematology and serum chemistry parameters, and normal baseline sperm counts were included in the studies. After the end of the study, all animals were returned to the colony. Confounders were not controlled.
Dosing regimens. […] The formulation (Compound A in saline) was prepared freshly each day of dosing. […] Repeat dose administration: Three (3) Cohort 1 animals were dosed at 0.5 mg/kg/day (Day 1-46) followed by 1.5 mg/kg/day (Day 47-51), 2.5 mg/kg/day (Day 52-101) and 5 mg/kg/day (Day 102-108). Three (3) Cohort 2 animals were dosed at 5 mg/kg/day (Day 1-30) followed by 7.5 mg/kg/day (Day 31-37). No control animals were used in the single and repeat dose studies. Since bioavailability was assessed at time point zero in the PK study and sperm parameters were assessed at pre-dose in the efficacy studies, each animal served as its own control.
Semen collection and sperm count/concentration assessment. Semen samples were obtained once per week or once every other week via electroejaculation during the entire repeat dose study periods from all 3 animals per Cohort to assess sperm concentration and count. Samples were left at room temperature for 30 min to allow for liquefication. Liquefied semen was diluted with 3% NaCl solution for manual sperm count assessment using a hemocytometer. All samples were analyzed in triplicates. Sperm concentration per ejaculate was calculated with the following formula: Sperm concentration=Sperm count×104×Dilution factor. No data point was excluded from the analysis.
Testicular biopsy collection and histology. Testicular biopsies (2 per animal; one from the right and one from the left testicle) were taken 24 h after administering the last dose and on the last day of the recovery period from all 3 animals per Cohort to assess morphological changes. Preoperative care of animals consisted of food restriction and general examination. All surgical procedures were conducted using aseptic techniques and comprehensive physiologic monitoring. The animals were anesthetized with Zoletil 50 (5 mg/kg) by intramuscular (i.m.) injection. The scrotum was disinfected with iodine and 75% alcohol, and lidocaine (1%) was administered intradermally at the biopsy needle insertion site. Core biopsies (one per testis) were collected with a 16 G TSK starcut biopsy needle. Immediately after biopsy collection, animals received Meloxicam (0.2 mg/kg) and Ketorolac (10 mg) for pain relief, and Ceftriaxone sodium (0.5 g) as […] (all via i.m. injection). Meloxicam was given once daily for 3 consecutive days, Ketorolac twice daily for 2 days, and Ceftriaxone sodium once daily for 4 days post-collection. […]

healthy men = experiment: Phase 1b MAD study (Part 1), 28-day dosing, safety and tolerability; format: in vivo, human
Protocol: Cohort 4 (receiving 180 mg) is currently being studied.

CYP2C8 = CYP2C8 (Homo sapiens, UniProt P10632); experiment: In vitro CYP inhibition (direct and time-dependent), CYP2C8; format: in vitro ADME
Text: (§1) However, the likelihood of drug interactions is low since healthy participants who meet eligibility criteria will be enrolled in this Phase 1b/2a clinical trial. An allowance for select concomitant medications may be considered for select participants at the discretion of the investigator and/or sponsor if drug profiles are not anticipated to interact with Compound A. Such medications may include, but will not be limited to paracetamol or ibuprofen as assessed by both the PI and the Sponsor. […] Additional precautions to avoid grapefruit, pomegranates, star fruit, or Seville oranges for 7 days prior to admission, and juices and products containing these fruits for the duration of the study will be taken.

male Beagle dogs = experiment: Dog 28-day repeat-dose GLP toxicity study; format: in vivo
[1] = Dog 28-day repeat-dose GLP toxicity study; format: in vivo; conditions: male, Beagle, in vivo; for NOAEL at 28 days: dog
[2] = Rat GLP single dose study, PK at the NOAEL; conditions: male, in vivo, 1000 mg/kg, single dose 1,000 mg/kg (NOAEL)
respiratory system = experiment: Rat respiratory safety pharmacology study; format: in vivo; conditions: male Sprague Dawley rats, single oral doses of 3, 10 or 30 mg/kg
CYP2C9 = CYP2C9 (Homo sapiens, UniProt P11712); experiment: In vitro CYP inhibition (direct and time-dependent), CYP2C9; format: in vitro ADME
Text: as §1

[3] = NHP non-GLP 14-day repeat-dose study, PK at the NOAEL; conditions: male, cynomolgus monkey, in vivo, 10 mg/kg, 10 mg/kg (NOAEL); for AUC(0-t): read-out: AUC0-24
mammalian cell = experiment: Chromosomal aberration assay (in vitro mammalian cell assay); format: cell-based; conditions: highest doses tested
[4] = 15, 30 or 90 mg once daily for 28 days

Sequence of CYP2C9 (P11712 whole entry): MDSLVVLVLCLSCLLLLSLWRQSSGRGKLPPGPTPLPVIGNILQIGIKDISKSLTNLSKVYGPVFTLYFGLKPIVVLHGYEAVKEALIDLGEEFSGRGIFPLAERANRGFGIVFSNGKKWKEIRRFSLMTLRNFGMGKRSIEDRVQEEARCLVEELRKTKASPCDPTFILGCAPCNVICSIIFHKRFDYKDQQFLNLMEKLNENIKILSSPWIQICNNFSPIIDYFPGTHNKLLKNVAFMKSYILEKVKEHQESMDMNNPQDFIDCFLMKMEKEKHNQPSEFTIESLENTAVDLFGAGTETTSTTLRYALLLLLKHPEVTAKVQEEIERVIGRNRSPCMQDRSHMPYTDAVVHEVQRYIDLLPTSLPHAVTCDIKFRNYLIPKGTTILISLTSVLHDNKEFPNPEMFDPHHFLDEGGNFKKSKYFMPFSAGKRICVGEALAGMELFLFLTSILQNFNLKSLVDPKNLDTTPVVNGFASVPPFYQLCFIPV
Sequence of CYP2C8 (P10632 whole entry): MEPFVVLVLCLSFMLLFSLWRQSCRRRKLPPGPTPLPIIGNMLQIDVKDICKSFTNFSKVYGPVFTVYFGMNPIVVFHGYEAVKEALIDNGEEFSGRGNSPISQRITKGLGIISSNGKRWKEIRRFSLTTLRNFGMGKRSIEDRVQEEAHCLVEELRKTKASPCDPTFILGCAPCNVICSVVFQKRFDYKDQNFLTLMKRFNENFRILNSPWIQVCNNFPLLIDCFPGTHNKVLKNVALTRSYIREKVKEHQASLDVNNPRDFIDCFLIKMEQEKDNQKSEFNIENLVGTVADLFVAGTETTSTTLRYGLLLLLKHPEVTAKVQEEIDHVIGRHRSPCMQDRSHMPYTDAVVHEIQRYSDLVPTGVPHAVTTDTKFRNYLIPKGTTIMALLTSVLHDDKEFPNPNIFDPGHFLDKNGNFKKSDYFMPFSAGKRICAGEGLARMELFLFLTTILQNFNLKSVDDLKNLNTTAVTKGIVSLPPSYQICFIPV

Compound: Cc1ccc(C2=CC(C)(C)Oc3ccc(-c4ccc(-c5ccc(C(=O)O)cc5)[nH]4)cc32)cc1 [Compound A]
- HED (based on BSA) of MABEL (male Cynomolgus macaques; NHP): 0.8 mg/kg
- HED for 60 kg BW of MABEL (male Cynomolgus macaques; NHP): 48 mg
- HED for 80 kg BW of MABEL (male Cynomolgus macaques; NHP): 64 mg
- MABEL (male Cynomolgus macaques; NHP, 49-day repeat dose non-GLP): 2.5 mg/kg/day
- Lowest dose with decreases in sperm counts (male Cynomolgus macaques; NHP, repeat dose for 7 weeks): 2.5 mg/kg/day
- Reversibility of antispermatogenic effect (male Cynomolgus macaques; NHPs): 1.5-3.5 spermatogenic cycles
- AEs classified as possibly related to study treatment (healthy men; [4]): moderate ventricular triplet, mild skin rash, mild sunburn, mild increased urinary frequency and mild photosensitivity
- AEs classified as possibly related to study treatment (number) (healthy men; [4]): Five
- Serious adverse events (SAEs) (healthy men; 15, 30 or 90 mg once daily for 28 days, fasting, to date): no serious adverse events
- Safety and tolerability (healthy men; 28-day oral administration, up to 90 mg, fasted state): safe and well tolerated
- IC50 (CYP2C8; CYP2C8): 8.37 µM
- Time-dependent inhibition (TDI) (CYP2C8; CYP2C8, 0.3 to 100 μM): no TDI potential
- HED (based on BSA) of MABEL (male Beagle dogs; dog): 1.4 mg/kg
- HED for 60 kg BW of MABEL (male Beagle dogs; dog): 84 mg
- HED for 80 kg BW of MABEL (male Beagle dogs; dog): 112 mg
- HED of not tolerated dose, fixed dose based on 80 kg body weight (male Beagle dogs; dog): ≥ 444.8 mg
- Not tolerated repeat daily dose (death and morbidity) (male Beagle dogs; dog): ≥ 10 mg/kg/day
- Doses with intended testicular toxicity confirmed by histopathology (male Beagle dogs; dog, 28-day dosing): ≥ 2.5 mg/kg/day
- MABEL (male Beagle dogs; dog, 28-day repeat dose GLP): 2.5 mg/kg/day
- Reversibility of spermatogenesis (male Beagle dogs; dog, 62-day recovery period): reversible
- Recovery of spermatogenesis (male Beagle dogs; dog, after 28-day dosing): 1 spermatogenic cycle
- Cross-section of canine testicle after dosing (FIG. 1B) (male Beagle dogs; dog, after dosing): no developing and mature sperm
- Cross-section of canine testicle after recovery period of no dosing (FIG. 1C) (male Beagle dogs; dog, after recovery period): return of developing sperm
- Cause of death or moribundity (male Beagle dogs; dogs, 10 or 25 mg/kg/day): renal toxicity
- NOAEL increase over the minimum efficacious dose in rats (male Beagle dogs; male, Beagle, dog, in vivo, 28 days): 22 fold
- HED for 60 kg BW (male Beagle dogs; of dog repeat-dose NOAEL): 168 mg
- HED for 80 kg BW (male Beagle dogs; of dog repeat-dose NOAEL): 224 mg
- Human equivalent dose of NOAEL at 28 days ([1]; dog 28-day GLP, NOAEL 5 mg/kg/day, read-out: HED of NOAEL): 2.8 mg/kg/day
- NOAEL at 28 days ([1]; 28-day repeat dose GLP, 2.5-25 mg/kg/day): 5 mg/kg/day
- NOAEL at 28 days ([1]; 28-day repeat-dose): 5 mg/kg
- AUC(0-t) ([2]; Day 1, mean, read-out: AUC0-24): 560 µg·h/mL
- Tmax ([2]; Day 1, median): 48 h
- half-life ([2]; Day 1, median, calculated from only 2 animals): 16.9 h
- Cmax ([2]; Day 1, n = 20, mean): 45100 ng/mL
- Main outcomes: rat respiratory (adverse effects on respiratory system) (respiratory system): no adverse effects; also recorded: Clean
- IC50 (CYP2C9; CYP2C9): 14.6 µM
- Time-dependent inhibition (TDI) (CYP2C9; CYP2C9, 0.3 to 100 μM): no TDI potential
- half-life ([3]; Day 1, mean ± SD): 7.9 ± 1.7 h
- AUC(0-t) ([3]; Day 1, mean): 147 µg·h/mL
- Cmax ([3]; Day 1, n = 3, mean): 13000 ng/mL
- Cmax ([3]; Day 14, mean): 6530 ng/mL
- half-life ([3]; Day 14, mean ± SD): 6.2 ± 0.4 h
- AUC(0-t) ([3]; Day 14, mean): 69.7 µg·h/mL
- Genotoxicity: chromosomal aberration (mammalian cell): not genotoxic; also recorded: no genotoxic potential; also recorded: Clean
